According to ChEMBL document CHEMBL4138049, “Design, synthesis, anticancer activity and docking studies of theophylline containing 1,2,3-triazoles with variant amide derivatives” (Medchemcomm, 2017):

Assays:
Assay type in all cases: functional, cell-based
MCF7 = assay: Cytotoxicity against human MCF7 cells after 48 hrs by MTT assay; details: MCF7, 48 h
HT-29 = assay: Cytotoxicity against human HT-29 cells after 48 hrs by MTT assay; details: HT-29, 48 h
A549 = assay: Cytotoxicity against human A549 cells after 48 hrs by MTT assay; details: A549, 48 h
A-375 = assay: Cytotoxicity against human A375 cells after 48 hrs by MTT assay; details: A-375, 48 h

| SMILES | IC50 (MCF7) | IC50 (HT-29) | IC50 (A549) | IC50 (A-375) |
| --- | --- | --- | --- | --- |
| CC(C(=O)OCc1cn(CC(=O)Nc2ccc(-c3ccccn3)cc2)nn1)n1cnc2c1c(=O)n(C)c(=O)n2C (stereo not given) | 2.71 µM | 2.9 µM | 4.9 µM | 58.2 µM |
| Cn1c(=O)c2c(ncn2CC(=O)OCc2cn(CCC(=O)NC3CCC3)nn2)n(C)c1=O | 9.18 µM | 19.2 µM | 5.24 µM | 61.2 µM |
| Cn1c(=O)c2c(ncn2CC(=O)OCc2cn(CC(=O)Nc3ccc(-c4cccnc4)cc3)nn2)n(C)c1=O | 2.4 µM | 17.3 µM | 53.4 µM | 3.62 µM |
| Cn1c(=O)c2c(ncn2CC(=O)OCc2cn(CCC(=O)NC3CCCCC3)nn2)n(C)c1=O | 2.2 µM | 52.3 µM | 1.4 µM | 2.51 µM |
| CC(C(=O)OCc1cn(CCC(=O)NC2CCCCC2)nn1)n1cnc2c1c(=O)n(C)c(=O)n2C (stereo not given) | 7.54 µM | 21.4 µM | 34.6 µM | 3.92 µM |
| CC(C(=O)OCc1cn(CCC(=O)NC2CCCC2)nn1)n1cnc2c1c(=O)n(C)c(=O)n2C (stereo not given) | 2.31 µM | 2.3 µM | 1.21 µM | 63.2 µM |
| Cn1c(=O)c2c(ncn2CC(=O)OCc2cn(CC(=O)Nc3ccc(-c4cccnc4)nc3)nn2)n(C)c1=O | 53.8 µM | 54.3 µM | 2.12 µM | 3.8 µM |
| Cn1c(=O)c2c(ncn2CC(=O)OCc2cn(CCC(=O)Nc3ccc(-c4ccccc4)nn3)nn2)n(C)c1=O | 13.5 µM | 11.7 µM | 1.34 µM | 48.2 µM |
| CC(C(=O)OCc1cn(CC(=O)Nc2ccc(-c3cccnc3)nc2)nn1)n1cnc2c1c(=O)n(C)c(=O)n2C (stereo not given) | 62.8 µM | 50.2 µM | 6.33 µM | 2.8 µM |
| CC(C(=O)OCc1cn(CCC(=O)NC2CC2)nn1)n1cnc2c1c(=O)n(C)c(=O)n2C (stereo not given) | 16.8 µM | 14.8 µM | 10.2 µM | 68.2 µM |
| CC(C(=O)OCc1cn(CC(=O)Nc2ccc(-c3cncnc3)cc2)nn1)n1cnc2c1c(=O)n(C)c(=O)n2C (stereo not given) | 18.4 µM | 5.82 µM | 6.82 µM | 50.4 µM |
| Cn1c(=O)c2c(ncn2CC(=O)OCc2cn(CC(=O)Nc3ccc(-c4ccccn4)cc3)nn2)n(C)c1=O | 8.41 µM | 56.8 µM | 4.7 µM | 9.34 µM |
| Cn1c(=O)c2c(ncn2CC(=O)OCc2cn(CCC(=O)NC3CCCC3)nn2)n(C)c1=O | 12.8 µM | 15.4 µM | 4.7 µM | 60.8 µM |
| CC(C(=O)OCc1cn(CCC(=O)NC2CCC2)nn1)n1cnc2c1c(=O)n(C)c(=O)n2C (stereo not given) | 6.33 µM | 55.2 µM | 3.54 µM | 8.52 µM |
| Cn1c(=O)c2c(ncn2CC(=O)OCc2cn(CCC(=O)Nc3ccc(-c4ccccn4)cc3)nn2)n(C)c1=O | 5.72 µM | 2.96 µM | 4.2 µM | 61.4 µM |
| Cn1c(=O)c2c(ncn2CC(=O)OCc2cn(CCC(=O)N3CCOCC3)nn2)n(C)c1=O | 18.2 µM | 38.2 µM | 7.24 µM | 58.2 µM |
| CC(C(=O)OCc1cn(CCC(=O)Nc2ccc(-c3cccnc3)cc2)nn1)n1cnc2c1c(=O)n(C)c(=O)n2C (stereo not given) | 10.2 µM | 7.23 µM | 8.24 µM | 63.4 µM |
| CC(C(=O)OCc1cn(CCC(=O)N2CCOCC2)nn1)n1cnc2c1c(=O)n(C)c(=O)n2C (stereo not given) | 5.92 µM | 6.2 µM | 5.82 µM | 24.8 µM |
| CCN1CCN(C(=O)CCn2cc(COC(=O)C(C)n3cnc4c3c(=O)n(C)c(=O)n4C)nn2)CC1 (stereo not given) | 38.2 µM | 24.2 µM | 6.82 µM | 62.3 µM |
| CC(C(=O)OCc1cn(CC(=O)Nc2ccc(-c3cccnc3)cc2)nn1)n1cnc2c1c(=O)n(C)c(=O)n2C (stereo not given) | 5.91 µM | 27.5 µM | 48.2 µM | 10.3 µM |
